# Results: patent US20210095322A1, “HIGH-PURITY STEVIOL GLYCOSIDES” (PureCircle USA Inc., priority 2018, published 2021)
# Key:
# [1] = Isosweet determination (2-AFC) vs sucrose in acidified water, sweetness potency; type: in vivo, human; settings: pH = 3.2
# Method: As an example, Reb AM was evaluated.
# [2] = aqueous solution; Ref: Celaya et al (2016); cited from earlier work
# [3] = FEMA GRAS publication; cited from earlier work
compound,measurement,setting,value
"C=C1C[C@@]23CC[C@H]4[C@@](C)(CCC[C@@]4(C)C(=O)O[C@@H]4O[C@H](CO)[C@@H](O)[C@H](O)[C@H]4O)[C@@H]2CC[C@]1(O[C@@H]1O[C@H](CO)[C@@H](O)[C@H](O[C@@H]2O[C@H](CO)[C@@H](O)[C@H](O)[C@H]2O)[C@H]1O[C@@H]1O[C@H](CO)[C@@H](O)[C@H](O)[C@H]1O)C3 [Reb A, rebaudioside A]",Sweetness Equivalent (ppm) in Water,[1]; 2.5% SE,94 ppm
same,Sweetness Potency in Water,[1]; 2.5% SE,266 x sugar equivalent
same,Sweetness Equivalent (ppm) in Water,[1]; 5.0% SE,299 ppm
same,Sweetness Potency in Water,[1]; 5.0% SE,167 x sugar equivalent
same,Solubility,[2],<0.7%
same,Sweetness Perception Threshold Concentration,[3],30 ppm
